Results taken from patent US20230085307A1, “PYRIDAZINONE COMPOUND AND HERBICIDE” (NISSAN CHEMICAL CORPORATION, priority 2019, published 2023).

What was measured:
windgrass = experiment: Test Example 5: herbicidal effect by foliage application, plastic box (Table 20, symbol L); assay type: in vivo, windgrass (Apera spica-venti); details: foliage application; for effect on windgrass (L) / herbicidal effect grade, L: windgrass / herbicidal effect on L: windgrass / herbicidal effect on L: windgrass (criteria 0-5): 320 g/ha; for effect on windgrass (L): 3 weeks after application; for herbicidal effect grade, L: windgrass / L: windgrass, herbicidal effect: three weeks after application; for herbicidal effect on L: windgrass / herbicidal effect on L: windgrass (criteria 0-5) / L: windgrass, herbicidal effect (criteria 0-5): evaluated three weeks after application
Outline: (§1)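 Plants were sown into sterilized diluvial soil under about 1.5 cm cover and kept in a greenhouse at 25° C. to 30° C. Fourteen days on, foliage received an even spray of the diluted emulsion. Herbicidal or crop effect was judged three weeks afterwards.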

false cleavers = experiment: Test Example 5: herbicidal effect by foliage application, plastic box (Table 20, symbol Q); assay type: in vivo, false cleavers (Galium spurium); details: foliage application, 320 g/ha; for effect on false cleavers (Q): 3 weeks after application; for herbicidal effect on Q: false cleavers: evaluated three weeks after application
Outline: as §1

C=CCC(C)Oc1ccc(-c2sc3ccccc3c2-c2c(O)c(C)nn(C)c2=O)cc1 (racemic) [1-213]
effect on windgrass (L) (windgrass): 5 (Herbicidal rate of 90% or more (almost completely withered))

COCC(C)Oc1ccc(-c2sc3ccccc3c2-c2c(O)c(C)nn(C)c2=O)cc1 (racemic) [1-228]
effect on windgrass (L) (windgrass): 5 (Herbicidal rate of 90% or more (almost completely withered))

CCC(COc1ccc(-c2sc3ccccc3c2-c2c(O)c(C)nn(C)c2=O)cc1)OC (racemic) [1-230]
effect on windgrass (L) (windgrass): 4 (Herbicidal rate of 70% or more and less than 90%)

CCCC(=O)Oc1c(C)nn(C)c(=O)c1-c1c(-c2ccc(OCC)cc2)sc2ccccc12 [1-014]
herbicidal effect grade, L: windgrass (windgrass): 0 (Herbicidal rate of 5% or less (almost no effect))

CCCC(=O)Oc1c(C)nn(C)c(=O)c1-c1c(-c2ccc(OC)c(OC)c2)sc2ccccc12 [1-073]
herbicidal effect grade, L: windgrass (windgrass): 0 (Herbicidal rate of 5% or less (almost no effect))

CCCC(=O)Oc1c(C)nn(C)c(=O)c1-c1c(-c2ccc3c(c2)OCCO3)sc2ccccc12 [1-090]
L: windgrass, herbicidal effect (windgrass; AAH 320 g/ha): 0 (Herbicidal rate of 5% or less (almost no effect))

Cc1nn(C)c(=O)c(-c2c(-c3cnc4ccccc4c3)sc3ccccc23)c1O [1-108]
L: windgrass, herbicidal effect (windgrass; AAH 320 g/ha): 0 (Herbicidal rate of 5% or less (almost no effect))

CCCC(=O)Oc1c(C)nn(C)c(=O)c1-c1c(-c2ccc(C(C)C)cc2)sc2ccccc12 [1-126]
L: windgrass, herbicidal effect (windgrass; AAH 320 g/ha): 0 (Herbicidal rate of 5% or less (almost no effect))

Cc1nn(C)c(=O)c(-c2c(-c3ccc(OCc4ccccc4)cc3)sc3ccccc23)c1O [1-133]
L: windgrass, herbicidal effect (windgrass; AAH 320 g/ha): 0 (Herbicidal rate of 5% or less (almost no effect))

Cc1nn(C)c(=O)c(-c2c(-c3ccc(OCC4CC4(F)F)cc3)sc3ccccc23)c1O (stereo not shown) [1-138]
L: windgrass, herbicidal effect (windgrass; AAH 320 g/ha): 5 (Herbicidal rate of 90% or more (almost completely withered))

CSCCOc1ccc(-c2sc3ccccc3c2-c2c(O)c(C)nn(C)c2=O)cc1 [1-141]
L: windgrass, herbicidal effect (windgrass; AAH 320 g/ha): 5 (Herbicidal rate of 90% or more (almost completely withered))

Cc1nn(C)c(=O)c(-c2c(-c3ccc(OCC4CC4)cc3)sc3ccccc23)c1O [1-142]
L: windgrass, herbicidal effect (windgrass; AAH 320 g/ha): 1 (Herbicidal rate of 5% or more and less than 20%)

COCCOc1ccc(-c2sc3ccccc3c2-c2c(O)c(C)nn(C)c2=O)cc1 [1-148]
L: windgrass, herbicidal effect (windgrass; AAH 368 g/ha): 4 (Herbicidal rate of 70% or more and less than 90%)

Cc1nn(C)c(=O)c(-c2c(-c3ccc(OCCC(F)(F)F)cc3)sc3ccccc23)c1O [1-206]
effect on windgrass (L) (windgrass): 5 (Herbicidal rate of 90% or more (almost completely withered))

C=C(Br)COc1ccc(-c2sc3ccccc3c2-c2c(O)c(C)nn(C)c2=O)cc1 [1-215]
effect on windgrass (L) (windgrass): 5 (Herbicidal rate of 90% or more (almost completely withered))

CSCCSCc1ccc(-c2sc3ccccc3c2-c2c(O)c(C)nn(C)c2=O)cc1 [1-253]
effect on windgrass (L) (windgrass): 0 (Herbicidal rate of 5% or less (almost no effect))

Cc1ccc(-c2sc3ccc(F)cc3c2-c2c(O)c(C)nn(C)c2=O)cc1 [2-012]
effect on windgrass (L) (windgrass): 4 (Herbicidal rate of 70% or more and less than 90%)

CCCC(=O)Oc1c(C)nn(C)c(=O)c1-c1c(-c2ccc(C)cc2)sc2ccc(F)cc12 [2-013]
effect on windgrass (L) (windgrass): 3 (Herbicidal rate of 40% or more and less than 70%)

COc1ccc(-c2sc3ccc(F)cc3c2-c2c(O)c(C)nn(C)c2=O)cc1 [2-026]
effect on windgrass (L) (windgrass): 4 (Herbicidal rate of 70% or more and less than 90%) | effect on false cleavers (Q) (false cleavers): 4 (Herbicidal rate of 70% or more and less than 90%)

CCCCOc1ccc(-c2sc3ccc(F)cc3c2-c2c(O)c(C)nn(C)c2=O)cc1 [2-036]
effect on windgrass (L) (windgrass): 4 (Herbicidal rate of 70% or more and less than 90%) | effect on false cleavers (Q) (false cleavers): 4 (Herbicidal rate of 70% or more and less than 90%)

CCCC(=O)Oc1c(C)nn(C)c(=O)c1-c1c(-c2ccc(OC(F)(F)F)cc2)sc2ccc(F)cc12 [2-046]
effect on windgrass (L) (windgrass): 0 (Herbicidal rate of 5% or less (almost no effect))

Cc1nn(C)c(=O)c(-c2c(-c3ccc(OCCF)cc3)sc3ccc(F)cc23)c1O [2-047]
effect on windgrass (L) (windgrass): 4 (Herbicidal rate of 70% or more and less than 90%)

Cc1nn(C)c(=O)c(-c2c(-c3ccc(OCC(F)(F)F)cc3)sc3ccc(F)cc23)c1O [2-049]
herbicidal effect on L: windgrass (windgrass): 5 (Herbicidal rate of 90% or more (almost completely withered))

C=CCOc1ccc(-c2sc3ccc(F)cc3c2-c2c(O)c(C)nn(C)c2=O)cc1 [2-051]
herbicidal effect on L: windgrass (windgrass): 5 (Herbicidal rate of 90% or more (almost completely withered))

C#CCOc1ccc(-c2sc3ccc(F)cc3c2-c2c(O)c(C)nn(C)c2=O)cc1 [2-053]
herbicidal effect on L: windgrass (windgrass): 4 (Herbicidal rate of 70% or more and less than 90%)

CSc1ccc(-c2sc3ccc(F)cc3c2-c2c(O)c(C)nn(C)c2=O)cc1 [2-076]
herbicidal effect on L: windgrass (windgrass): 5 (Herbicidal rate of 90% or more (almost completely withered))

CCCC(=O)Oc1c(C)nn(C)c(=O)c1-c1c(-c2ccc(SC)cc2)sc2ccc(F)cc12 [2-077]
herbicidal effect on L: windgrass (windgrass): 5 (Herbicidal rate of 90% or more (almost completely withered))

CON=C(C)c1ccc(-c2sc3ccc(F)cc3c2-c2c(O)c(C)nn(C)c2=O)cc1 [2-079]
herbicidal effect on L: windgrass (windgrass): 5 (Herbicidal rate of 90% or more (almost completely withered)) | herbicidal effect on Q: false cleavers (false cleavers): 5 (Herbicidal rate of 90% or more (almost completely withered))

CCCC(=O)Oc1c(C)nn(C)c(=O)c1-c1c(-c2ccc(C(C)=NOC)cc2)sc2ccc(F)cc12 [2-080]
herbicidal effect on L: windgrass (windgrass): 5 (Herbicidal rate of 90% or more (almost completely withered))

CCOc1cc(F)ccc1-c1sc2ccc(F)cc2c1-c1c(O)c(C)nn(C)c1=O [2-084]
herbicidal effect on L: windgrass (windgrass): 4 (Herbicidal rate of 70% or more and less than 90%) | herbicidal effect on Q: false cleavers (false cleavers): 5 (Herbicidal rate of 90% or more (almost completely withered))

Cc1nn(C)c(=O)c(-c2c(-c3ccc(C(F)(F)F)cc3)sc3ccc(Cl)cc23)c1O [2-111]
herbicidal effect on L: windgrass (windgrass): 5 (Herbicidal rate of 90% or more (almost completely withered))

CCCC(=O)Oc1c(C)nn(C)c(=O)c1-c1c(-c2ccccc2OC)sc2ccc(C)cc12 [2-139]
herbicidal effect on L: windgrass (windgrass): 0 (Herbicidal rate of 5% or less (almost no effect))

C=Cc1ccc2sc(-c3ccccc3OC)c(-c3c(O)c(C)nn(C)c3=O)c2c1 [2-185]
herbicidal effect on L: windgrass (criteria 0-5) (windgrass): 1 (Herbicidal rate of 5% or more and less than 20%)

Cc1nn(C)c(=O)c(-c2c(-c3ccccc3)sc3ccc(F)cc23)c1O [2-197]
herbicidal effect on L: windgrass (criteria 0-5) (windgrass): 4 (Herbicidal rate of 70% or more and less than 90%)

CCCC(=O)Oc1c(C)nn(C)c(=O)c1-c1c(-c2ccccc2)sc2ccc(F)cc12 [2-198]
herbicidal effect on L: windgrass (criteria 0-5) (windgrass): 4 (Herbicidal rate of 70% or more and less than 90%)

Cc1nn(C)c(=O)c(-c2c(-c3ccccc3F)sc3ccc(F)cc23)c1O [2-199]
herbicidal effect on L: windgrass (criteria 0-5) (windgrass): 0 (Herbicidal rate of 5% or less (almost no effect))

CCCC(=O)Oc1c(C)nn(C)c(=O)c1-c1c(-c2ccc(Br)cc2)sc2ccc(F)cc12 [2-206]
herbicidal effect on L: windgrass (criteria 0-5) (windgrass): 4 (Herbicidal rate of 70% or more and less than 90%)

CCc1ccc(-c2sc3ccc(F)cc3c2-c2c(O)c(C)nn(C)c2=O)cc1 [2-207]
herbicidal effect on L: windgrass (criteria 0-5) (windgrass): 4 (Herbicidal rate of 70% or more and less than 90%)

Cc1nn(C)c(=O)c(-c2c(-c3cccc(OCC(C)C)c3)sc3ccc(F)cc23)c1O [2-221]
herbicidal effect on L: windgrass (criteria 0-5) (windgrass): 5 (Herbicidal rate of 90% or more (almost completely withered))

Cc1nn(C)c(=O)c(-c2c(-c3cccc(OC(C)(C)C)c3)sc3ccc(F)cc23)c1O [2-223]
herbicidal effect on L: windgrass (criteria 0-5) (windgrass): 5 (Herbicidal rate of 90% or more (almost completely withered))

CCCC(=O)Oc1c(C)nn(C)c(=O)c1-c1c(-c2ccc(C(F)F)cc2)sc2ccc(F)cc12 [2-228]
herbicidal effect on L: windgrass (criteria 0-5) (windgrass): 0 (Herbicidal rate of 5% or less (almost no effect))

CCSc1ccc(-c2sc3ccc(F)cc3c2-c2c(O)c(C)nn(C)c2=O)cc1 [2-244]
herbicidal effect on L: windgrass (criteria 0-5) (windgrass): 5 (Herbicidal rate of 90% or more (almost completely withered))

Cc1nn(C)c(=O)c(-c2c(-c3ccc(SC4CC4)cc3)sc3ccc(F)cc23)c1O [2-254]
L: windgrass, herbicidal effect (criteria 0-5) (windgrass; AAH 320 g/ha): 5 (Herbicidal rate of 90% or more (almost completely withered))

Cc1nn(C)c(=O)c(-c2c(-c3ccc([S+]([O-])C(C)C)cc3)sc3ccc(F)cc23)c1O (stereo not shown) [2-257]
L: windgrass, herbicidal effect (criteria 0-5) (windgrass; AAH 320 g/ha): 5 (Herbicidal rate of 90% or more (almost completely withered))

Cc1nn(C)c(=O)c(-c2c(-c3ccc(S(C)(=O)=O)cc3)sc3ccc(F)cc23)c1O [2-258]
L: windgrass, herbicidal effect (criteria 0-5) (windgrass; AAH 320 g/ha): 5 (Herbicidal rate of 90% or more (almost completely withered))

Cc1nn(C)c(=O)c(-c2c(-c3ccc(OC(F)F)cc3)sc3ccc(F)cc23)c1OC(=O)c1ccc(Cl)cc1 [2-286]
L: windgrass, herbicidal effect (criteria 0-5) (windgrass; AAH 320 g/ha): 0 (Herbicidal rate of 5% or less (almost no effect))

Cc1nn(C)c(=O)c(-c2c(-c3ccc(OC(F)F)cc3)sc3ccc(F)cc23)c1OC(=O)c1ccco1 [2-287]
L: windgrass, herbicidal effect (criteria 0-5) (windgrass; AAH 320 g/ha): 4 (Herbicidal rate of 70% or more and less than 90%)

Cc1nn(C)c(=O)c(-c2c(-c3ccc(OC(F)F)cc3)sc3ccc(F)cc23)c1OC(=O)C1CCCO1 (stereo not shown) [2-289]
L: windgrass, herbicidal effect (criteria 0-5) (windgrass; AAH 320 g/ha): 5 (Herbicidal rate of 90% or more (almost completely withered))

CCOC(=O)Oc1c(C)nn(C)c(=O)c1-c1c(-c2ccc(OC(F)F)cc2)sc2ccc(F)cc12 [2-292]
L: windgrass, herbicidal effect (criteria 0-5) (windgrass; AAH 320 g/ha): 2 (Herbicidal rate of 20% or more and less than 40%)

Cc1nn(C)c(=O)c(-c2c(-c3ccc(OC(F)F)cc3)sc3ccc(F)cc23)c1OCC(=O)c1ccccc1 [2-305]
L: windgrass, herbicidal effect (criteria 0-5) (windgrass; AAH 320 g/ha): 1 (Herbicidal rate of 5% or more and less than 20%)

CC(=O)c1ccc(-c2sc3ccc(F)cc3c2-c2c(O)c(C)nn(C)c2=O)cc1 [2-339]
L: windgrass, herbicidal effect (criteria 0-5) (windgrass; AAH 320 g/ha): 5 (Herbicidal rate of 90% or more (almost completely withered))
